Data on 27 compounds can be found in patent publication US11414395B2, “Heterocyclic compounds as modulators of mGluR7” (PRAGMA Therapeutics, priority 2017, dated 2022).

What is called IC50 is the concentration that inhibits the measured activity by half. A low value points to greater potency in that assay.

Sequence of human mGluR7 (Q14831 35-915): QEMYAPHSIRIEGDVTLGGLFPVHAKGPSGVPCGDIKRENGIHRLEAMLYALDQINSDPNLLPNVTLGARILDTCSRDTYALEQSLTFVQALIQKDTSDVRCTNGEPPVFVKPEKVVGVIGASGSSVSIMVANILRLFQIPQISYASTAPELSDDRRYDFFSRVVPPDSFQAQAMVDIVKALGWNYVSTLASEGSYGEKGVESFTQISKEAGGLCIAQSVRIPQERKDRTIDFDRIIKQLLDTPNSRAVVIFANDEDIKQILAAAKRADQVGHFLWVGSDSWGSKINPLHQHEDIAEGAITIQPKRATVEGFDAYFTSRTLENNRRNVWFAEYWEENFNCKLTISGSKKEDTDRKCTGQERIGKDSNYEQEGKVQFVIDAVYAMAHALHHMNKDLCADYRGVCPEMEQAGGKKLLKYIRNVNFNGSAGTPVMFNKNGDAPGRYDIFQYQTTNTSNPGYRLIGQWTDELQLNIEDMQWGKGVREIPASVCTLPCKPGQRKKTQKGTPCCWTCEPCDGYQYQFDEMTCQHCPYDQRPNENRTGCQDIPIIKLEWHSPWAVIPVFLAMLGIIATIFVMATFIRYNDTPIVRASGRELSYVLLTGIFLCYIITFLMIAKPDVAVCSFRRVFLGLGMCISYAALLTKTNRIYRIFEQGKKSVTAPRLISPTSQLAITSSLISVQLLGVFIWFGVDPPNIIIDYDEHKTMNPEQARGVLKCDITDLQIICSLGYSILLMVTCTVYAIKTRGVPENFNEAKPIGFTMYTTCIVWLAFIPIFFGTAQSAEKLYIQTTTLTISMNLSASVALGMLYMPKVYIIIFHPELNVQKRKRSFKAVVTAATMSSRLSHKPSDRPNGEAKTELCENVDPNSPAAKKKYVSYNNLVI

In the assay the target is human mGluR7 (Homo sapiens (Human), UniProt Q14831). The assay can be described thus: Inositol monophosphate production assay (IP1 assay), inhibition of L-AP4 response. Conditions: mean IC50 from at least two independent experiments; HEK293 cells transiently transfected with mGluR7, Gqtop and EAAC1; IP1 production vs EC80 L-AP4. In kind it is cell-based. An excerpt:
Inositol Monophosphate Production Assay (IP1 Assay):
HEK293 cells were transiently transfected with mGluR7 by electroporation and seeded in a poly-ornithine coated 96-well plate at the density of 150 000 cells/well. To allow the monitoring of receptor activity through measurements of inositol monophosphate (IP1) production, mGluR7 was transfected with a chimeric Gq/Gi protein (Gqtop). and was also co-transfected with EAAC1, a glutamate transporter, to avoid influence of extracellular glutamate. Cells were cultured in Dulbecco's Modified Eagle Medium (DMEM, Invitrogen, Cergy Pontoise, France), supplemented with 10% of Fetal Bovine Serum (FBS). Medium was changed by Glutamax™ (Invitrogen, Cergy Pontoise, France) to reduce extracellular glutamate concentration 3 hours before stimulation
IP1 production was determined using the IP-One HTRF kit (CisBio Bioassays), a competitive immunoassay using cryptate-labeled anti-IP1 antibody and d2-labeled IP, according to the manufacturer's recommendations. All points were realized in triplicate.
Data were analyzed with Prism 6 software (GraphPadSoftware, San Diego, Calif.). Typically, in each experiment, a four-parameter concentration-response curve equation was used to fit data and potency (IC50) is estimated as logarithms (log IC50). Data were calculated as % of the control mGluR7 agonist L-AP4 response, defined as the response that is generated upon addition of an EC80-equivalent concentration of L-AP4.
The Table 2 below represents the mean IC50 obtained from at least two independent experiments.
`COc1cccc(C2CCc3c(cnn(-c4ccc(C5CC5)cn4)c3=O)C2)c1C` (stereo not drawn) [Example 110, 2-(5-cyclopropylpyridin-2-yl)-6-(3-methoxy-2-methylphenyl)-5,6,7,8-tetrahydrophthalazin-1(2H)-one] had an IC50 of less than 500 nM.

`COc1cccc(-n2ncc3c(c2=O)CCC(c2ccc(C)cc2C)C3)n1` (stereo not drawn) [Example 13, 6-(2,4-dimethylphenyl)-2-(6-methoxypyridin-2-yl)-5,6,7,8-tetrahydrophthalazin-1(2H)-one] returned an IC50 of less than 500 nM.

On to `COc1cnc(-n2ncc3c(c2=O)CCC(c2cccc(OC)c2C)C3)cn1` (stereo not drawn) [Example 44, 6-(3-methoxy-2-methylphenyl)-2-(5-methoxypyrazin-2-yl)-5,6,7,8-tetrahydrophthalazin-1(2H)-one], for which the IC50 was less than 500 nM.

As to `Cc1c(OCC2CC2)cccc1C1CCc2c(cnn(-c3ncccn3)c2=O)C1` (stereo not drawn) [Example 102, 6-(3-(cyclopropylmethoxy)-2-methylphenyl)-2-(pyrimidin-2-yl)-5,6,7,8-tetrahydrophthalazin-1(2H)-one], the IC50 was in the range of 500 to 1000 nM.

Compound `Cc1ccc(C2CCc3c(cnn(-c4ncc(C(F)(F)F)cn4)c3=O)C2)c(C)c1` (stereo not drawn) [Example 55, 6-(2,4-dimethylphenyl)-2-(5-(trifluoromethyl)pyrimidin-2-yl)-5,6,7,8-tetrahydrophthalazin-1(2H)-one] displayed an IC50 of less than 500 nM.

In turn, `COc1c(C)cccc1C1CCc2c(cnn(-c3ncccn3)c2=O)C1` (stereo not drawn) [Example 71, 6-(2-methoxy-3-methylphenyl)-2-(pyrimidin-2-yl)-5,6,7,8-tetrahydrophthalazin-1(2H)-one] gave an IC50 of 500 to 1000 nM.

In turn, `Cc1c(OCc2ccccc2)cccc1C1CCc2c(cnn(-c3ncccn3)c2=O)C1` (stereo not drawn) [Example 106, 6-(3-(benzyloxy)-2-methylphenyl)-2-(pyrimidin-2-yl)-5,6,7,8-tetrahydrophthalazin-1(2H)-one] had an IC50 of 1000 to 30000 nM.

In the case of `Cc1ccc(C2CCc3c(cnn(-c4ncccn4)c3=O)C2)c(Cl)c1` (stereo not drawn) [Example 95, 6-(2-chloro-4-methylphenyl)-2-(pyrimidin-2-yl)-5,6,7,8-tetrahydrophthalazin-1(2H)-one], the IC50 is less than 500 nM.

Consider `Cc1cnc(-n2ncc3c(c2=O)CCC(c2ccc(C)cc2C)C3)nc1` (stereo not drawn) [Example 52, 6-(2,4-dimethylphenyl)-2-(5-methylpyrimidin-2-yl)-5,6,7,8-tetrahydrophthalazin-1(2H)-one], for which the IC50 is less than 500 nM.

In turn, `Cc1ccc(C2CCc3c(cnn(-c4ccc(N5CCOCC5)cn4)c3=O)C2)c(C)c1` (stereo not drawn) [Example 114, 6-(2,4-dimethylphenyl)-2-(5-morpholinopyridin-2-yl)-5,6,7,8-tetrahydrophthalazin-1(2H)-one] gave an IC50 of less than 500 nM.

The compound `Cc1ccc(C2Cc3cnn(-c4ccccn4)c(=O)c3C2)c(C)c1` (stereo not drawn) [Example 121, 6-(2,4-dimethylphenyl)-2-(pyridin-2-yl)-2,5,6,7-tetrahydro-1H-cyclopenta[d]-pyridazin-1-one] came in with an IC50 of 1000 to 30000 nM.

Take `CC(=O)Nc1cnc(-n2ncc3c(c2=O)CCC(c2ccc(C)cc2C)C3)nc1` (single isomer, unassigned; (-)) [Example 136, (−)-N-(2-(6-(2,4-dimethylphenyl)-1-oxo-5,6,7,8-tetrahydrophthalazin-2(1H)-yl)pyrimidin-5-yl)acetamide]: the half-maximal inhibitory concentration (IC50) fell in the range of 1000 to 30000 nM.

Regarding `COCc1ccc(-n2ncc3c(c2=O)CCC(c2ccc(C)cc2C)C3)nc1` (stereo not drawn) [Example 27, 6-(2,4-dimethylphenyl)-2-(5-(methoxymethyl)pyridin-2-yl)-5,6,7,8-tetrahydrophthalazin-1(2H)-one], the IC50 was less than 500 nM.

`COc1c(C)cccc1C1CCc2c(cnn(-c3ccccn3)c2=O)C1` (stereo not drawn) [Example 68, 6-(2-methoxy-3-methylphenyl)-2-(pyridin-2-yl)-5,6,7,8-tetrahydrophthalazin-1(2H)-one] yielded an IC50 of 500 to 1000 nM.

As for `CC(=O)c1ccc(C2CCc3c(cnn(-c4ncccn4)c3=O)C2)c(C)c1` (stereo not drawn) [Example 99, 6-(4-acetyl-2-methylphenyl)-2-(pyrimidin-2-yl)-5,6,7,8-tetrahydrophthalazin-1(2H)-one], the IC50 is 1000 to 30000 nM.

Turning to `COCc1cccc(C2CCc3c(cnn(-c4ncccn4)c3=O)C2)c1` (stereo not drawn) [Example 83, 6-(3-(methoxymethyl)phenyl)-2-(pyrimidin-2-yl)-5,6,7,8-tetrahydrophthalazin-1(2H)-one], the IC50 lay in the range of 500 to 1000 nM.

Compound `Cc1ccc(C2CCc3c(cnn(-c4nccs4)c3=O)C2)c(C)c1` (stereo not drawn) [Example 32, 6-(2,4-dimethylphenyl)-2-(thiazol-2-yl)-5,6,7,8-tetrahydrophthalazin-1(2H)-one] returned an IC50 of 500 to 1000 nM.

For `O=c1c2c(cnn1-c1ncccn1)CC(c1cccc3c1ccn3C1CC1)CC2` (single isomer, unassigned; (-)) [Example 139, (−)-6-(1-cyclopropyl-1H-indol-4-yl)-2-(pyrimidin-2-yl)-5,6,7,8-tetrahydrophthalazin-1(2H)-one], the IC50 was less than 500 nM.

The compound `COc1ccc(C)cc1C1CCc2c(cnn(-c3ncccn3)c2=O)C1` (stereo not drawn) [Example 76, 6-(2-methoxy-5-methylphenyl)-2-(pyrimidin-2-yl)-5,6,7,8-tetrahydrophthalazin-1(2H)-one] came in with an IC50 of less than 500 nM.

`Cc1ccc(OC2CC2)cc1C1CCc2c(cnn(-c3ncccn3)c2=O)C1` (stereo not drawn) [Example 84, 6-(5-cyclopropoxy-2-methylphenyl)-2-(pyrimidin-2-yl)-5,6,7,8-tetrahydrophthalazin-1(2H)-one] showed an IC50 of less than 500 nM.

Take `Cc1ccc(C2CCc3c(cnn(-c4cc(O)ccn4)c3=O)C2)c(C)c1` (stereo not drawn) [Example 26, 6-(2,4-dimethylphenyl)-2-(4-hydroxypyridin-2-yl)-5,6,7,8-tetrahydrophthalazin-1(2H)-one]: the IC50 is less than 500 nM.

Turning to `COc1cccc(C2CCc3c(cnn(-c4ncc(C)cn4)c3=O)C2)c1Cl` (single isomer, unassigned; (+)) [Example 135, (+)-6-(2-chloro-3-methoxyphenyl)-2-(5-methylpyrimidin-2-yl)-5,6,7,8-tetrahydrophthalazin-1(2H)-one], the half-maximal inhibitory concentration (IC50) was 500 to 1000 nM.

For the compound `COc1cccc(C2CCc3c(cnn(-c4ncccn4)c3=O)C2)c1Cl` (stereo not drawn) [Example 72, 6-(2-chloro-3-methoxyphenyl)-2-(pyrimidin-2-yl)-5,6,7,8-tetrahydrophthalazin-1(2H)-one], the IC50 is less than 500 nM.

Consider `CN(C)c1cccc(C2CCc3c(cnn(-c4ccccn4)c3=O)C2)c1` (stereo not drawn) [Example 59, 6-(3-(dimethylamino)phenyl)-2-(pyridin-2-yl)-5,6,7,8-tetrahydrophthalazin-1(2H)-one], for which the 50% inhibitory concentration (IC50) was less than 500 nM.

Compound `COc1cccc(C2CCc3c(cnn(-c4ncc(C5CC5)cn4)c3=O)C2)c1C` (stereo not drawn) [Example 125, 2-(5-cyclopropylpyrimidin-2-yl)-6-(3-methoxy-2-methylphenyl)-5,6,7,8-tetrahydrophthalazin-1(2H)-one] yielded an IC50 of less than 500 nM.

`Cc1ccc(C)c(C2CCc3c(cnn(-c4ncccn4)c3=O)C2)c1` (stereo not drawn) [Example 81, 6-(2,5-dimethylphenyl)-2-(pyrimidin-2-yl)-5,6,7,8-tetrahydrophthalazin-1(2H)-one] came in with an IC50 of 500 to 1000 nM.

`Cc1ccc(N2CCCC2)cc1C1CCc2c(cnn(-c3ncccn3)c2=O)C1` (stereo not drawn) [Example 77, 6-(2-methyl-5-(pyrrolidin-1-yl)phenyl)-2-(pyrimidin-2-yl)-5,6,7,8-tetrahydrophthalazin-1(2H)-one]: the IC50 was less than 500 nM.
